Test results: PubChem BioAssay AID248 (DTP/NCI, 2004)
Inconclusive results and toxic doses are left out.

Test system: L1210 leukemia ip in BDF1 mice, survival T/C
Assay: NCI In Vivo Anticancer Drug Screen. Data for tumor model L1210 Leukemia (intraperitoneal) in B6D2F1 (BDF1) mice
Conditions: endpoint: mean survival time, higher = longer survival
In short: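 Ratio derived from survival: compound-dosed mice over vehicle-dosed mice, all bearing a transplantable tumor.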

[1] = dose: 100.0 mg/kg/injection, schedule: Q01DX009 (ip), vehicle: saline
[2] = dose: 200.0 mg/kg/injection, schedule: Q01DX009 (ip), vehicle: saline
[3] = dose: 400.0 mg/kg/injection, schedule: Q01DX009 (ip), vehicle: saline
[4] = dose: 50.0 mg/kg/injection, schedule: Q01DX009 (ip), vehicle: saline with Tween-80
[5] = dose: 100.0 mg/kg/injection, schedule: Q01DX009 (ip), vehicle: saline with Tween-80
[6] = dose: 200.0 mg/kg/injection, schedule: Q01DX009 (ip), vehicle: saline with Tween-80
[7] = dose: 100.0 mg/kg/injection, schedule: Q01DX001 (ip), vehicle: carboxymethylcellulose (CMC)
[8] = dose: 200.0 mg/kg/injection, schedule: Q01DX001 (ip), vehicle: carboxymethylcellulose (CMC)
[9] = dose: 400.0 mg/kg/injection, schedule: Q01DX001 (ip), vehicle: carboxymethylcellulose (CMC)
[10] = dose: 100.0 mg/kg/injection, schedule: Q01DX009 (ip), vehicle: Klucel (hydroxypropylcellulose) (HPC)
[11] = dose: 100.0 mg/kg/injection, schedule: Q04DX003 (ip), vehicle: Klucel (hydroxypropylcellulose) (HPC)
[12] = dose: 200.0 mg/kg/injection, schedule: Q01DX009 (ip), vehicle: Klucel (hydroxypropylcellulose) (HPC)
[13] = dose: 200.0 mg/kg/injection, schedule: Q04DX003 (ip), vehicle: Klucel (hydroxypropylcellulose) (HPC)
[14] = dose: 400.0 mg/kg/injection, schedule: Q04DX003 (ip), vehicle: Klucel (hydroxypropylcellulose) (HPC)
[15] = dose: 100.0 mg/kg/injection, schedule: Q01DX001 (ip), vehicle: saline
[16] = dose: 200.0 mg/kg/injection, schedule: Q01DX001 (ip), vehicle: saline
[17] = dose: 100.0 mg/kg/injection, schedule: Q04DX003 (ip), vehicle: saline with Tween-80
[18] = dose: 200.0 mg/kg/injection, schedule: Q04DX003 (ip), vehicle: saline with Tween-80
[19] = dose: 400.0 mg/kg/injection, schedule: Q04DX003 (ip), vehicle: saline with Tween-80
[20] = dose: 400.0 mg/kg/injection, schedule: Q01DX009 (ip), vehicle: Klucel (hydroxypropylcellulose) (HPC)

## O=S(=O)(O)C1(O)CCCCC1
dose: 50.0 mg/kg/injection, schedule: Q01DX009 (ip), vehicle: saline
  T/C: 99 % of control
[1]
  T/C: 93 % of control
dose: 100.0 mg/kg/injection, schedule: Q04DX003 (ip), vehicle: saline
  T/C: 102 % of control
[2]
  T/C: 103 % of control
dose: 200.0 mg/kg/injection, schedule: Q04DX003 (ip), vehicle: saline
  T/C: 100 % of control
[3]
  T/C: 113 % of control
dose: 400.0 mg/kg/injection, schedule: Q04DX003 (ip), vehicle: saline
  T/C: 96 % of control

## COc1ccc(/C=N/NC(=O)c2ccccc2Cl)cc1OC
[4]
  T/C: 102 % of control
[5]
  T/C: 91 % of control
[6]
  T/C: 88 % of control

## COc1ccc(Cl)cc1CC=O
[7]
  T/C: 118 % of control
[8]
  T/C: 118 % of control
[9]
  T/C: 114 % of control

## COC(=O)c1cc(C)c(Br)c(OC)c1
[10]
  T/C: 98 % of control
[11]
  T/C: 94 % of control
[12]
  T/C: 100 % of control
[13]
  T/C: 111 % of control
[14]
  T/C: 100 % of control

## Cc1ccc(Nc2cc(N)nc(N)n2)cc1C
dose: 25.0 mg/kg/injection, schedule: Q01DX Z (ip), vehicle: methylcellulose (MC)
  T/C: 97 % of control
dose: 50.0 mg/kg/injection, schedule: Q01DX Z (ip), vehicle: methylcellulose (MC)
  T/C: 114 % of control

## O=C1Sc2ccccc2C1=O
[15]
  T/C: 94 % of control
[11]
  T/C: 91 % of control
[16]
  T/C: 103 % of control
[13]
  T/C: 94 % of control
[14]
  T/C: 102 % of control

## COc1ccccc1NC(=S)Nc1ccccc1OC
[10]
  T/C: 102 % of control
dose: 100.0 mg/kg/injection, schedule: Q01DX009 (ip), vehicle: saline sonified
  T/C: 97 % of control
[5]
  T/C: 90 % of control
[11]
  T/C: 93 % of control
dose: 100.0 mg/kg/injection, schedule: Q04DX003 (ip), vehicle: saline sonified
  T/C: 110 % of control
[17]
  T/C: 92 % of control
[12]
  T/C: 94 % of control
dose: 200.0 mg/kg/injection, schedule: Q01DX009 (ip), vehicle: saline sonified
  T/C: 97 % of control
[6]
  T/C: 101 % of control
[13]
  T/C: 98 % of control
dose: 200.0 mg/kg/injection, schedule: Q04DX003 (ip), vehicle: saline sonified
  T/C: 95 % of control
[18]
  T/C: 96 % of control
dose: 400.0 mg/kg/injection, schedule: Q01DX009 (ip), vehicle: saline sonified
  T/C: 86 % of control
dose: 400.0 mg/kg/injection, schedule: Q01DX009 (ip), vehicle: saline with Tween-80
  T/C: 93 % of control
[14]
  T/C: 96 % of control
dose: 400.0 mg/kg/injection, schedule: Q04DX003 (ip), vehicle: saline sonified
  T/C: 116 % of control
[19]
  T/C: 92 % of control

## Nc1ccc(CCCNc2c(N)nc(N)nc2-c2ccccc2)cc1
dose: 50.0 mg/kg/injection, schedule: Q01DX001 (ip), vehicle: saline
  T/C: 100 % of control
[15]
  T/C: 103 % of control
[16]
  T/C: 94 % of control

## CCOC(=O)C1=C(C)NC(=O)NC1c1ccc(N(CCCl)CCCl)cc1Cl (stereo not given)
dose: 25.0 mg/kg/injection, schedule: Q01DX009 (ip), vehicle: Klucel (hydroxypropylcellulose) (HPC)
  T/C: 102 % of control
dose: 50.0 mg/kg/injection, schedule: Q01DX009 (ip), vehicle: Klucel (hydroxypropylcellulose) (HPC)
  T/C: 98 % of control
[10]
  T/C: 111 % of control

## CCCCCCCCCCCCCCCCCCNC(=S)NC1CCCCC1
dose: 60.0 mg/kg/injection, schedule: Q01DX015 (ip), vehicle: carboxymethylcellulose (CMC)
  T/C: 98 % of control
dose: 120.0 mg/kg/injection, schedule: Q01DX015 (ip), vehicle: carboxymethylcellulose (CMC)
  T/C: 96 % of control
dose: 240.0 mg/kg/injection, schedule: Q01DX015 (ip), vehicle: carboxymethylcellulose (CMC)
  T/C: 96 % of control
dose: 480.0 mg/kg/injection, schedule: Q01DX015 (ip), vehicle: carboxymethylcellulose (CMC)
  T/C: 98 % of control

## COc1ccc(OC)c(NC(=O)c2cccc(N(CCCl)CCCl)c2)c1
dose: 100.0 mg/kg/injection, schedule: Q01DX001 (ip), vehicle: other
  T/C: 98 % of control
dose: 200.0 mg/kg/injection, schedule: Q01DX001 (ip), vehicle: other
  T/C: 95 % of control
dose: 400.0 mg/kg/injection, schedule: Q01DX001 (ip), vehicle: other
  T/C: 104 % of control

## CCC(CC)C[N+](C)(C)C
dose: 75.0 mg/kg/injection, schedule: Q01DX001 (ip), vehicle: saline
  T/C: 95 % of control
dose: 150.0 mg/kg/injection, schedule: Q01DX001 (ip), vehicle: saline
  T/C: 104 % of control

## CC1(C)SC(N=C=Nc2ccccc2)CN1C=O (stereo not given)
dose: 75.0 mg/kg/injection, schedule: Q01DX001 (ip), vehicle: other
  T/C: 96 % of control
dose: 150.0 mg/kg/injection, schedule: Q01DX001 (ip), vehicle: other
  T/C: 86 % of control
dose: 300.0 mg/kg/injection, schedule: Q01DX001 (ip), vehicle: other
  T/C: 93 % of control

## C[S+]1C=Cc2ccccc2C1c1ccc(Cl)cc1 (stereo not given)
dose: 25.0 mg/kg/injection, schedule: Q04DX002 (ip), vehicle: Klucel (hydroxypropylcellulose) (HPC)
  T/C: 117 % of control

## Cc1ccc(CNC(=O)NC(C)(C)C)cc1C
dose: 100.0 mg/kg/injection, schedule: Q04DX002 (ip), vehicle: Klucel (hydroxypropylcellulose) (HPC)
  T/C: 103 % of control
dose: 200.0 mg/kg/injection, schedule: Q04DX002 (ip), vehicle: Klucel (hydroxypropylcellulose) (HPC)
  T/C: 111 % of control
dose: 400.0 mg/kg/injection, schedule: Q04DX002 (ip), vehicle: Klucel (hydroxypropylcellulose) (HPC)
  T/C: 100 % of control

## Cc1[nH]c(=O)[nH]c(=O)c1[N+](=O)[O-]
[10]
  T/C: 94 % of control
[11]
  T/C: 102 % of control
[12]
  T/C: 101 % of control
[13]
  T/C: 104 % of control
[20]
  T/C: 87 % of control
[14]
  T/C: 102 % of control

## c1ccc(N(c2ccccc2)C(c2ccccc2)(c2ccccc2)c2ccccc2)cc1
dose: 25.6 mg/kg/injection, schedule: Q04DX002 (ip), vehicle: saline with Tween-80
  T/C: 93 % of control
dose: 64.0 mg/kg/injection, schedule: Q04DX002 (ip), vehicle: saline with Tween-80
  T/C: 104 % of control
[17]
  T/C: 89 % of control
dose: 160.0 mg/kg/injection, schedule: Q04DX002 (ip), vehicle: saline with Tween-80
  T/C: 95 % of control
[18]
  T/C: 92 % of control
dose: 400.0 mg/kg/injection, schedule: Q04DX002 (ip), vehicle: saline with Tween-80
  T/C: 95 % of control
[19]
  T/C: 685 % of control

## COc1ccc(C=Nc2ccc([N+](=O)[O-])cc2O)cc1
[7]
  T/C: 96 % of control
[8]
  T/C: 94 % of control
[9]
  T/C: 90 % of control

## CCCCCCCCCCCCCCCCNS(=O)(=O)c1ccc2sc(SC)nc2c1
[18]
  T/C: 90 % of control
[19]
  T/C: 90 % of control

## Cc1cc(C(=O)O)c(C)c2c1sc1ccccc12
[15]
  T/C: 87 % of control
[16]
  T/C: 107 % of control

## CCCCCCCCOc1ccc(C=Nc2ccc(C)cc2)cc1
[10]
  T/C: 98 % of control
[12]
  T/C: 104 % of control
[20]
  T/C: 92 % of control

## NCCOB(c1ccccc1)c1ccccc1
dose: 3.8 mg/kg/injection, schedule: Q01DX009 (ip), vehicle: saline with Tween-80
  T/C: 94 % of control
dose: 7.5 mg/kg/injection, schedule: Q01DX009 (ip), vehicle: saline with Tween-80
  T/C: 105 % of control
dose: 15.0 mg/kg/injection, schedule: Q01DX009 (ip), vehicle: saline with Tween-80
  T/C: 91 % of control

## CCOC(=O)c1cc(Br)cc(Br)c1N/N=[N+](\C)[O-]
[4]
  T/C: 105 % of control
[5]
  T/C: 98 % of control
[6]
  T/C: 110 % of control

## O=S(=O)(O)c1cccc(S(=O)(=O)O)c1
[1]
  T/C: 105 % of control
[2]
  T/C: 103 % of control
[3]
  T/C: 97 % of control

## CCOC(=O)C1=C(O)c2c(sc(C)c2-c2ccccc2)N(S(=O)(=O)c2ccc(C)cc2)CC1
dose: 50.0 mg/kg/injection, schedule: Q04DX003 (ip), vehicle: saline with Tween-80
  T/C: 98 % of control
[17]
  T/C: 93 % of control
[18]
  T/C: 93 % of control
[19]
  T/C: 98 % of control
